Results as given in US20250230154A1, “COMPOUND HAVING SHP2 PROTEIN DEGRADING ACTIVITY, AND MEDICAL USES THEREOF” (UBIX THERAPEUTICS, INC., priority 2021, published 2025).

Molecular target: T1, SHP2 protein (Homo sapiens, UniProt Q06124)
T1 sequence (Q06124 1-593): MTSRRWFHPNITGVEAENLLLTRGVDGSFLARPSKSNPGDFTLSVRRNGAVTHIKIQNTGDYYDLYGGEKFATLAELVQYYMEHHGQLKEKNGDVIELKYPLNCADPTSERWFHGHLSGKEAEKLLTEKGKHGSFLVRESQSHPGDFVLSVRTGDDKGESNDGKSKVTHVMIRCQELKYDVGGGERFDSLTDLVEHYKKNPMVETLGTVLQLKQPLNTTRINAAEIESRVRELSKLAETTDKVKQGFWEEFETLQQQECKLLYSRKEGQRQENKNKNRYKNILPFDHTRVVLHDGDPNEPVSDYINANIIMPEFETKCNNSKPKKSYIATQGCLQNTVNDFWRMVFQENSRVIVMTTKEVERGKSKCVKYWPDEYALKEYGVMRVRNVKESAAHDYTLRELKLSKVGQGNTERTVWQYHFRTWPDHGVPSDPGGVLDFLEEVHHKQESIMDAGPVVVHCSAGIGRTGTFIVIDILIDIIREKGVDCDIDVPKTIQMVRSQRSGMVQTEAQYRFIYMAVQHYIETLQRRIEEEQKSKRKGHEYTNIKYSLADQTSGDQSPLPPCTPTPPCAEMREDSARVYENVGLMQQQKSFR
Assay: Measurement of SHP2 protein degradation in KYSE-520 cells (western blotting)
Assay type: cell-based
Design: endogenous in cells
Details: 24 hours
Protocol: Experimental Example 1: Measurement of SHP2 Protein Degradation in KYSE-520 Cells
KYSE-520 cells were treated with the synthesized Example compound, and the amount of SHP2 protein present in the cells was measured using western blotting detection. The protocol of the experiment conducted using KYSE-520 cells was as follows:
[Culture] KYSE-520 cells resuspended in RPMI1640 MEDIUM (Hyclone, SH30027.01) containing 5% FBS (Hyclone, SV30207.02) and 1% Penicillin-streptomycin (Welgene, LS 202-02) were seeded at a density of 2.5×10^5/well in a 6-well plate in an amount of 2 ml each and incubated for 2 days.
[Compound treatment] […] After 24 hours, cells were harvested. For the negative control group, DMSO diluted 1/10 to the media (3 mL DMSO+27 mL media) was added.
[Cell Lysis and Protein Quantification] Lysis buffer was prepared as follows: […] of RIPA buffer (Biosesang, RC2038-050-00)+0.5 mM PMSF (SIGMA, P7626)+1× Protease/Phosphatase Inhibitor (Cell signaling, 5872S) per well was added and placed on ice for 30 minutes (vortexing at 0 and 30 minutes, respectively). After sonication process (10 seconds pulse, 30 seconds rest, 5 cycles, 70% amplification), centrifugation (15000 g, 15 min, 4° C.) was performed, and then only the supernatant was taken and transferred to a new microtube. The sample was diluted ¼ with RIPA buffer in a 96-well plate, and mixed with A:B=50:1 of the BCA Protein Assay Kit (iNtRON, 21071). […] each of the mixture was left at 37° C. for 30 minutes, and cooled for 10 minutes. Then, absorbance was measured at 562 nm with the SYNERGY H1 microplate reader from BioTek. After making a sample by quantifying the protein with the measured value, boiling was performed at 70° C. for 10 minutes. At this time, the sample buffer used was a mixture of NuPAGE or Bolt 4× sample buffer (Invitrogen) and each 10× sample reducing agent according to the gel to be used, and RIPA buffer was used for protein dilution.
[Western blotting detection method] The same amount of sample was loaded on NuPAGE or Bolt Bis-tris 4-12% gradient gel and run (200 V, 35 minutes). It was transferred to 0.2 mm NC membrane with Trans-blot Turbo (BIO-RAD) (1.3 A constant, 25 V limit, 15 minutes). Blocking was performed at room temperature for 1 hour with Skim milk or Intercept Blocking Buffer (LI-COR, 927-60001):0.1% TBST=1:1. Anti SHPTP2 Mouse (1:500 in 5% Skim milk/TBST, size: 70 kDa, Santacruz sc-7384) was incubated overnight at 4° C., and Anti GAPDH Rabbit (1:2,000 in 5% BSA/0.2% TBST, size: 37 kDa, CST #2118) was incubated at room temperature for 1 hour 30 minutes or 3 hours. It was washed 3 times for 5 minutes each with 0.2% TBST washing buffer. Secondary antibody Anti-Rabbit IgG (1:5,000 in 5% Skim milk/0.2% TBST, CST), and IRDye® 680RD Goat anti-Rabbit IgG Secondary Antibody (1:10,000 in 5% BSA/0.2% TBST, LI-COR 926-68071) were incubated for 45 minutes on a rocker at room temperature. It was washed 5 times for 5 minutes each with 0.2% TBST washing buffer and detected with LI-COR's Odyssey. At this time, SHPTP2 was detected using SuperSignal West Pico PLUS Chemiluminescent Substrate, and house-keeping genes were also detected.
In the results of Table 4 below, Compounds 1-7, 13-19, and 21-26 are results in KYSE-520 cells, and the others are results in MV-4-11 cells.

Row | SHP2 degradation (%) 10 nM | SHP2 degradation (%) 100 nM | SHP2 degradation (%) 1000 nM | Compound
1 | 14.2% | 60.1% | 69.1% | Cc1ncsc1-c1ccc(CNC(=O)[C@@H]2C[C@@H](O)CN2C(=O)[C@@H](NC(=O)C2(F)CC2)C(C)(C)C)c(OCCCN2CCC(CCC(=O)Nc3cccc(Sc4cnc(N5CCC(C)(CN)CC5)cn4)c3Cl)CC2)c1 [Example 14, (2S,4R)—N-(2-(3-(4-(3-((3-((5-(4-(aminomethyl)-4-methylpiperidin-1-yl)pyrazin-2-yl)thio)-2-chlorophenyl)amino)-3-oxopropyl)piperidin-1-yl)propoxy)-4-(4-methylthiazol-5-yl)benzyl)-1-((S)-2-(1-fluorocyclopropane-1-carboxamido)-3,3-dimethylbutanoyl)-4-hydroxypyrrolidine-2-carboxamide]
2 | −24.3% | 45.1% | 84.0% | Cc1ncsc1-c1ccc(CNC(=O)[C@@H]2C[C@@H](O)CN2C(=O)[C@@H](NC(=O)C2(F)CC2)C(C)(C)C)c(OCCN2CCC(CCCC(=O)Nc3cccc(Sc4cnc(N5CCC(C)(CN)CC5)cn4)c3Cl)CC2)c1 [Example 16, (2S,4R)—N-(2-(2-(4-(4-((3-((5-(4-(aminomethyl)-4-methylpiperidin-1-yl)pyrazin-2-yl)thio)-2-chlorophenyl)amino)-4-oxobutyl)piperidin-1-yl)ethoxy)-4-(4-methylthiazol-5-yl)benzyl)-1-((S)-2-(1-fluorocyclopropane-1-carboxamido)-3,3-dimethylbutanoyl)-4-hydroxypyrrolidine-2-carboxamide]
3 | −9.0% | 56.9% | 91.8% | Cc1ncsc1-c1ccc(CNC(=O)[C@@H]2C[C@@H](O)CN2C(=O)[C@@H](NC(=O)C2(F)CC2)C(C)(C)C)c(OCCCCCCN2CCC(CCCC(=O)Nc3cccc(Sc4cnc(N5CCC(C)(CN)CC5)cn4)c3Cl)CC2)c1 [Example 18, (2S,4R)—N-(2-((6-(4-(4-((3-((5-(4-(aminomethyl)-4-methylpiperidin-1-yl)pyrazin-2-yl)thio)-2-chlorophenyl)amino)-4-oxobutyl)piperidin-1-yl)hexyl)oxy)-4-(4-methylthiazol-5-yl)benzyl)-1-((S)-2-(1-fluorocyclopropane-1-carboxamido)-3,3-dimethylbutanoyl)-4-hydroxypyrrolidine-2-carboxamide]
4 |  | 31.5% | 78.0% | Cc1ncsc1-c1ccc(CNC(=O)[C@@H]2C[C@@H](O)CN2C(=O)[C@@H](NC(=O)C2(F)CC2)C(C)(C)C)c(OCCCCCCN2CC(C(=O)Nc3cccc(Sc4cnc(N5CCC(C)(CN)CC5)cn4)c3Cl)C2)c1 [Example 19, (2S,4R)—N-(2-((6-(3-((3-((5-(4-(aminomethyl)-4-methylpiperidin-1-yl)pyrazin-2-yl)thio)-2-chlorophenyl)carbamoyl)azetidin-1-yl)hexyl)oxy)-4-(4-methylthiazol-5-yl)benzyl)-1-((S)-2-(1-fluorocyclopropane-1-carboxamido)-3,3-dimethylbutanoyl)-4-hydroxypyrrolidine-2-carboxamide]
5 | 11.7% | 51.7% | 66.6% | Cc1ncsc1-c1ccc(CNC(=O)[C@@H]2C[C@@H](O)CN2C(=O)[C@@H](NC(=O)C2(F)CC2)C(C)(C)C)c(OCCCC(=O)N2CCC(C(=O)Nc3cccc(Sc4cnc(N5CCC(C)(CN)CC5)cn4)c3Cl)CC2)c1 [Example 21, N-(3-((5-(4-(aminomethyl)-4-methylpiperidin-1-yl)pyrazin-2-yl)thio)-2-chlorophenyl)-1-(4-(2-(((2S,4R)-1-((S)-2-(1-fluorocyclopropane-1-carboxamido)-3,3-dimethylbutanoyl)-4-hydroxypyrrolidine-2-carboxamido)methyl)-5-(4-methylthiazol-5-yl)phenoxy)butanoyl)piperidine-4-carboxamide]

Row | Compound | SHP2 degradation (%) 10 nM | SHP2 degradation (%) 100 nM | SHP2 degradation (%) 1000 nM
6 | Cc1ncsc1-c1ccc(CNC(=O)[C@@H]2C[C@@H](O)CN2C(=O)[C@@H](NC(=O)C2(F)CC2)C(C)(C)C)c(OCCCCN2CCC(CCC(=O)Nc3cccc(Sc4cnc(N5CCC(C)(CN)CC5)cn4)c3Cl)CC2)c1 [Example 15, (2S,4R)—N-(2-(4-(4-(3-((3-((5-(4-(aminomethyl)-4-methylpiperidin-1-yl)pyrazin-2-yl)thio)-2-chlorophenyl)amino)-3-oxopropyl)piperidin-1-yl)butoxy)-4-(4-methylthiazol-5-yl)benzyl)-1-((S)-2-(1-fluorocyclopropane-1-carboxamido)-3,3-dimethylbutanoyl)-4-hydroxypyrrolidine-2-carboxamide] | 21.7% | 58.3% | 74.6%
7 | Cc1ncsc1-c1ccc(CNC(=O)[C@@H]2C[C@@H](O)CN2C(=O)[C@@H](NC(=O)C2(F)CC2)C(C)(C)C)c(OCCCCN2CCC(CCCC(=O)Nc3cccc(Sc4cnc(N5CCC(C)(CN)CC5)cn4)c3Cl)CC2)c1 [Example 17, (2S,4R)—N-(2-(4-(4-(4-((3-((5-(4-(aminomethyl)-4-methylpiperidin-1-yl)pyrazin-2-yl)thio)-2-chlorophenyl)amino)-4-oxobutyl)piperidin-1-yl)butoxy)-4-(4-methylthiazol-5-yl)benzyl)-1-((S)-2-(1-fluorocyclopropane-1-carboxamido)-3,3-dimethylbutanoyl)-4-hydroxypyrrolidine-2-carboxamide] |  | 71.8% | 94.9%
8 | Cc1ncsc1-c1ccc(CNC(=O)[C@@H]2C[C@@H](O)CN2C(=O)[C@@H](NC(=O)C2(F)CC2)C(C)(C)C)c(OCCCC(=O)N2CCC(CC(=O)Nc3cccc(Sc4cnc(N5CCC(C)(CN)CC5)cn4)c3Cl)CC2)c1 [Example 23, (2S,4R)—N-(2-(4-(4-(2-((3-((5-(4-(aminomethyl)-4-methylpiperidin-1-yl)pyrazin-2-yl)thio)-2-chlorophenyl)amino)-2-oxoethyl)piperidin-1-yl)-4-oxobutoxy)-4-(4-methylthiazol-5-yl)benzyl)-1-((S)-2-(1-fluorocyclopropane-1-carboxamido)-3,3-dimethylbutanoyl)-4-hydroxypyrrolidine-2-carboxamide] | 8.4% | 44.3% | 64.2%
